Assay results taken from paper PMC9667936, “Functional mapping of the 14-3-3 hub protein as a guide to design 14-3-3 molecular glues” (Chemical Science, 2022).
Where a SMILES comes first, the peptide text is derived from it. [ ]: non-standard residue; d: D form. The star is where a group is joined. ξ: configuration not given here. FITC = O=C1OC2(c3ccc(O)cc3Oc3cc(O)ccc32)c2ccc(NC(=S)*)cc21; Phe(4-NO2) = N[C@@H](Cc1ccc([N+](=O)[O-])cc1)C(=O)O; ξAla(4-thiazolyl) = NC(Cc1cscn1)C(=O)O; pS = N[C@@H](COP(=O)(O)O)C(=O)O; β3hS = N[C@@H](CO)CC(=O)O; Nva = CCC[C@H](N)C(=O)O; ξβ3hS = NC(CO)CC(=O)O; βAla = NCCC(=O)O

How the values were obtained:
14-3-3γ/ChREBP = biological target: T1, 14-3-3γ/ChREBP (Homo sapiens, UniProt P61981+Q9NP71); assay: 2D FA titration of 14-3-3/ChREBP and cooperativity analysis with thermodynamic equilibrium model; type: binding; settings: 14-3-3γ/ChREBP/2d ternary complex; 2D FA titration (20 nM FITC-2d, 0.01–10 μM ChREBP) fitted to thermodynamic equilibrium model; n = 2
T1 construct: made in house; host or cells: E. coli NiCo21 (DE3) for 14-3-3 gamma; ChREBP is a synthetic peptide
T1 sequence (P61981 1-247): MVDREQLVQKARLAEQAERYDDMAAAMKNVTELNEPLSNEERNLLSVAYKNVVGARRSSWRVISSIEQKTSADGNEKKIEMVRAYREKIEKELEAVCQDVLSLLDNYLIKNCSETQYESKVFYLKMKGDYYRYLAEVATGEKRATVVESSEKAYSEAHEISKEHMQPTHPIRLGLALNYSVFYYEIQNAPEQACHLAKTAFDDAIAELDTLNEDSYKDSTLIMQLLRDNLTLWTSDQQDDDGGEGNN
T1 sequence (Q9NP71 118-142 partner limits assumed): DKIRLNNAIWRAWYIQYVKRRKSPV
Description: (§1) a four-parameter logistic model (4PL). Each measurement was performed in two independent […]
(§2) Fluorescence anisotropy (FA) - 2D-14-3-3/ChREBP titrations: 14-3-3γ was titrated in a 2-fold dilution series (starting at 300 µM 14-3-3γ) to 20 nM of fluorescein-labeled peptide 2d in FA buffer (10 mM HEPES pH 7.4, 150 mM NaCl, 0.1% (v/v) Tween20, 0.1% (w/v) BSA) in presence of 2-fold dilution series of unlabeled ChREBP peptide (0.01-10 µM). Dilution series were made in a polystyrene (non-binding) low-volume Corning Black Round Bottom 384-well plates (Corning 4514 or 4511). Measurements were performed directly after plate preparation, using a Tecan Infinite F500 plate reader at room temperature (lex: 485 ± 20 nm; lem: 535 ± 25 nm; mirror: Dichroic 510; flashes: 20; integration time: 50 ms; settle time:
(§3) 0 ms; gain: optimal; and Z-position: calculated from well). Wells containing only FITC-peptide were used to set as G-factor at 35 mP. All data were analyzed using GraphPad Prism (7.00) for Windows and fitted using a four-parameter logistic model (4PL). […]
(§4) with R = 14-3-3, P = non-natural peptide (labelled), and C = ChREBP. The framework determined based on this system description the equilibrium equations needed to determine KDII and α. […] From this the model determined the KDII and α (with 95% confidence interval) and the error-landscape of the determine parameters. […]

[1] = test system: 14-3-3γ with partner peptides (ChREBP, ERα, SOS1, B-Raf, ERRγ, USP8, PIN1, p65); assay: FA selectivity study: 14-3-3 partner peptides titrated to preformed 14-3-3γ/FITC-2d complex; type: binding, human; settings: partner peptides titrated (from 100 μM) to 2 μM 14-3-3γ and 20 nM FITC-2d; n = 2
Description: as §1, §2, §3, §4

14-3-3 = settings: hits of a 10^8-membered synthetic non-canonical phosphopeptide library; read-out: affinity for 14-3-3; cited from earlier work
Text: We selected peptide 14-3-3.12, herein termed peptide 1, from the top hits for functional mapping. […] Further, the peptide completely occupies the 14-3-3 binding groove, thus allowing to explore both sides flanking 14-3-3's central phospho-accommodating pocket.

SMILES	cooperativity factor α (14-3-3γ/ChREBP)	selectivity of ternary complex formation over a panel of 14-3-3 partner peptides [1]	Kd (14-3-3) [nM]
C[C@H](NC(=O)[C@H](CCCCN)NC(=O)[C@H](Cc1ccc([N+](=O)[O-])cc1)NC(=O)CCNC(=O)C[C@H](CO)NC(=O)[C@H](Cc1ccc([N+](=O)[O-])cc1)NC(=O)[C@@H](N)COP(=O)(O)O)C(=O)N[C@@H](CCCCNC(=S)Nc1ccc2c(c1)C(=O)OC21c2ccc(O)cc2Oc2cc(O)ccc21)C(N)=O [2d] (H-[pS][Phe(4-NO2)][β3hS][βAla][Phe(4-NO2)]KAK(FITC)-NH2)	36	highly selective ternary complex formation	–
CCC[C@H](NC(=O)[C@H](N)CCCCN)C(=O)N[C@@H](Cc1ccc([N+](=O)[O-])cc1)C(=O)NC(Cc1cscn1)C(=O)N[C@@H](COP(=O)(O)O)C(=O)N[C@@H](Cc1ccc([N+](=O)[O-])cc1)C(=O)NC(CO)CC(=O)NCCC(=O)N[C@@H](Cc1ccc([N+](=O)[O-])cc1)C(=O)N[C@@H](CCCCN)C(N)=O (stereo partly drawn) [compound 1] (H-[dK][Nva][Phe(4-NO2)][ξAla(4-thiazolyl)][pS][Phe(4-NO2)][ξβ3hS][βAla][Phe(4-NO2)]K-NH2)	–	–	19
